From the METLIN SMRT retention time set (Domingo-Almenara et al. 2019)

assay: gradient 5% acetonitrile 3 min, to 50% in 2 min, to 85% in 15 min, held 3 min, 100 µL/min; settings: column: Zorbax Extend-C18 2.1 x 50 mm; eluents: water / acetonitrile, 0.1% formic acid
Method in brief: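 The mobile phases were water and acetonitrile, each with 0.1% formic acid, pumped at 100 μL/min through a Zorbax Extend-C18 column (2.1 × 50 mm, 1.8 μm). Pure standards were injected as mixtures of ~100 molecules and detected by a quadrupole time-of-flight mass spectrometer in positive and negative ionization mode. Retention time came from computationally picked adduct peaks, each inspected by hand.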

Structure (SMILES) | RP-LC retention time [s]
CS(=O)(=O)N1CCC(CNC(=O)C(=O)Nc2cc(Cl)ccc2C#N)CC1 | 743
CC1(C(=O)NCc2ccccc2)CN(S(C)(=O)=O)CC(=O)N1c1cccc(F)c1 (configuration not stated) | 710
CN(CC1CCOC1)C(=O)Nc1cc(F)cc(F)c1 (configuration not stated) | 744
O=S(=O)(NCCN1CCOCC1)c1cc(-c2noc(C3CCCC3)n2)cs1 | 678
COc1ccc(Cl)cc1NC(=O)Cn1nc(N2CCSCC2)c2ccccc2c1=O | 1080
CCCN(CC1CCOC1)C(=O)Nc1ccc(C)cc1C (configuration not stated) | 811
CNC(=O)C1CN(S(=O)(=O)c2cccc(F)c2)CC12CCCC2 (configuration not stated) | 778
O=C(Cn1ccc2c(SCc3ccccc3)nccc21)NCCCN1CCCC1 | 587
CCCS(=O)(=O)N1CCc2[nH]nc(-c3ccccc3)c2C1 | 752
O=c1n(CCOc2ccccc2)nc2ccc(S(=O)(=O)N3CCCCC3)cn12 | 922
O=C(c1ccc(-c2cccs2)nc1)N1CCCC1 | 737
CC1=C(c2ccc(C)cc2)S(=O)(=O)N=C1N1CCCN(C(=O)C2CCCC2)CC1 | 872
CCOc1ccc(S(=O)(=O)N2CCCC(C(=O)NCCCO)C2)cc1C (configuration not stated) | 736
O=S(=O)(c1ccc(-c2nnc(C3CCCC3)o2)o1)N1CCCCCC1 | 1060
CCCN(C)CC1(O)CCC2(CCN(C(=O)c3ccoc3)CC2)CC1 | 575
COc1ccc(CCC(=O)NCC2(c3cccs3)CCCC2)cc1 | 947

Structure (SMILES) | RP-LC retention time [s]
Cc1nncn1C1CN(C(=O)c2ccc(N(C)C)cc2)C1 | 602
O=C(NCc1ccncc1)C1CC(=O)N(c2ccc3c(c2)CCN3C(=O)C2CC2)C1 (configuration not stated) | 573
O=C(Cn1cnc2c(sc3nc(-c4ccccc4)ccc32)c1=O)Nc1ccccc1Cl | 1020
CC(C)NC(=O)c1cccc(N2C(=O)NC3CC2(C)Oc2ccc(Br)cc23)c1 (configuration not stated) | 793
O=C(/C=C/c1ccc(O)c(O)c1)c1ccc(O[C@@H]2O[C@H](CO)[C@@H](O)[C@H](O)[C@H]2O)c(O)c1O | 641
C[C@@H]1O[C@@H](O[C@H]2C[C@@H](O)[C@]3(CO)[C@@H]4C(CC[C@]3(O)C2)[C@@]2(O)CC[C@H](C3COC(=O)C3)[C@@]2(C)C[C@H]4O)[C@H](O)[C@H](O)[C@H]1O (some centres not stated) | 602
CCc1ccc(-c2nc3ccc(C)cn3c2CN2CCC(F)(COC)CC2)cc1 | 642
O=C(c1ccccc1C(F)(F)F)N1CCC2(C1)C(=O)Nc1ccccc12 (configuration not stated) | 743
COc1ccc(-c2nc3n(n2)C2(CCCCC2)[C@@H]2CCCC[C@@H]2N3C(C)=O)cc1 | 1330
CCN1CCN(C(=O)c2csc(N3CCN(c4ccc(OC)cc4)CC3)n2)CC1 | 654
CCOCCCNC(=O)C1CCCN(S(=O)(=O)c2ccc3c(ccn3CC)c2)C1 (configuration not stated) | 842
CCN1c2ccc(C(=O)Nc3ccc4c(c3)OCCO4)cc2-c2ccccc2S1(=O)=O | 990
O=C(NCc1cccs1)C1CCN(c2cnn(Cc3ccccc3)c(=O)c2)CC1 | 742
COc1ccc(S(=O)(=O)N2CCCC(C(=O)Nc3cc(C)ccc3C)C2)cc1Cl (configuration not stated) | 1040
COC(=O)C1C(=O)C2=C(CC1C)NC(=O)CC2c1cccc(C)c1 (configuration not stated) | 675

Further lines, results first:

RP-LC retention time [s] | Structure (SMILES)
808 | CSc1ccc(-c2nc3nc(C)cc(C)n3c2Nc2c(C)cccc2C)cc1
615 | COc1ccc(C(=O)N2CCC(c3cc(N)on3)CC2)cc1OC
657 | Cc1nnc2cc(N3CCN(C(=O)Nc4ccc(Cl)cc4)CC3)cnn12
664 | CCCCNC(=O)CCc1cc2cc(OC)ccc2[nH]c1=O
891 | Cc1nn(CC(=O)NCc2cc(F)cc(F)c2)c(=O)c2nc(-c3ccccc3)sc12
741 | Cc1cc(C)c(S(=O)(=O)Nc2ccc(-c3ccc4nnc(C)n4n3)cc2)cc1C
672 | CCNc1cc(N2CCCC(CCC(=O)NCc3ccccc3C)C2)ncn1 (configuration not stated)
939 | Cc1cccc(S(=O)(=O)N2C[C@H](c3nc(-c4ccncc4)no3)[C@@H](C)C2)c1
667 | CCCC(NC(=O)c1ccsc1)C(=O)Nc1nc2ccccc2[nH]1 (configuration not stated)
711 | C=CCNC(=O)c1cn(-c2cc(-c3nc(C)no3)ccn2)cn1
685 | Cc1cccc(OCC(O)Cn2c(C3CC3)nc3ccccc32)c1 (configuration not stated)
995 | Cc1ccc(NC(=O)N2CCc3nc(-c4ccccc4)ncc3C2)cc1C
705 | CSc1cccc(NC(=O)Cn2c(=O)n(C3CC3)c(=O)c3nscc32)c1
757 | Cc1nc(N2CCN(c3ccccn3)CC2)nc2c1C(=O)CC(c1ccccc1)C2 (configuration not stated)
1020 | Cc1c(C(=O)Nc2nccs2)nnn1-c1ccc2noc(-c3ccc(Cl)cc3)c2c1
590 | CSc1cccc(NC(=O)N2CCc3nc[nH]c3C2)c1
557 | C=CCNC(=O)Cc1cn2cc(Br)ccc2n1
594 | O=C(NCCCn1ccnc1)C1CC(=O)N(CCc2c[nH]c3ccc(F)cc23)C1 (configuration not stated)

RP-LC retention time [s] | Structure (SMILES)
905 | c1ccc(-c2nc3nccc(-c4ccc5c(c4)OCO5)n3n2)cc1
1210 | CCN1C(=O)COc2ccc(-c3noc(-c4cccc(C)c4)n3)cc21
694 | COC(=O)CSc1nnc(-c2sc3ncccc3c2N)n1C1CC1
891 | COc1ccccc1Nc1nc(-c2ccccc2)c(CC(=O)O)s1
735 | Cc1ccn2c(NC(=O)c3cc(Br)ccc3Cl)c(-c3ccccc3)nc2c1
549 | Cn1nc(N2CCC(NC(=O)Cc3ccncc3)C2)ccc1=O (configuration not stated)
657 | COC(=O)c1nnn(CC(=O)NCc2ccc3c(c2)OCO3)c1C(=O)OC
1030 | CCc1nc(-c2ccc3c(c2)CCN3C(=O)Cc2cccc(F)c2)no1
806 | Cc1ccsc1C(=O)NCCn1c(=O)n(Cc2ccccc2)c2cccnc21
832 | O=C(NCCc1csc(-c2cccc(F)c2)n1)C1CCCC1
855 | COc1ccc(Br)cc1CNC(=O)Cn1cc(-c2nnco2)c2ccccc21
742 | CCOC(=O)CNC(=O)N(C)CCc1noc(-c2ccc(F)cc2)n1
848 | Cc1cc(C2CCCN2C(=O)Cc2c(F)cccc2Cl)on1 (configuration not stated)
824 | Cc1ccc(NC(=O)Cn2ccc3ccc(-c4nnc(C)o4)cc32)cc1
855 | Cc1sc(NC(=O)c2ccccc2C(=O)O)nc1-c1ccccc1
990 | CCn1c(=O)oc2cc(-c3noc(-c4ccc(OC)c(OC)c4)n3)ccc21
913 | O=C(NC1CCN(c2cc(-c3ccc(Cl)cc3)[nH]n2)C1)c1ccc(Br)cc1 (configuration not stated)
609 | COc1ccc(C2C(C(=O)NCc3ccccn3)c3cc(OC)c(OC)cc3C(=O)N2C)cc1 (configuration not stated)
